The values that follow come from publication PMC12494099, “Discovery and Characterization of Novel IKZF1/3 Glue Degraders against Multiple Hematological Cancer Cell Lines” (Oncology Research, 2025).

For one assay, the system named is MV-4-11. The experiment in a line: Cell viability (CCK-8) assay. It counts as cell-based. As to conditions: 96 h, CCK-8. The method, then:
(§1) The plated at a density of 15,000 cells per well, and each well contained 100 µL of medium. Subsequently, different compounds (MGD-AX, MGD-BX, MGD-CX) were added to each well. […] To evaluate the antiproliferative effects of these compounds, the Cell Counting Kit-8 (CCK-8, #CX007, Epizyme, Shanghai, China) was used. All procedures were carried out in strict accordance with the manufacturer’s instructions (Dojindo Laboratories, Mamoto Ken, Japan).
The term IC50 denotes the concentration that inhibits the measured activity by half. A higher IC50 goes with weaker potency. Turning to “N-(2,6-dioxopiperidin-3-yl)-3-(thiomorpholinomethyl)cyclohexa-1,3-diene-1-carboxamide [MGD-A9]”, the IC50 is 1.9 ± 0.18 µM.
For the molecule “N-(2,6-dioxopiperidin-3-yl)-2-fluoro-3-((2-oxopiperidin-1-yl)methyl)benzamide [MGD-C8]”, the concentration for half-maximal inhibition (IC50) is 1.73 ± 0.17 µM.
In turn, “N-(2,6-dioxopiperidin-3-yl)-2-fluoro-3-(piperidin-1-ylmethyl)benzamide [MGD-C1]” returned an IC50 of 7.36 ± 0.7 µM.

The same assay, now with this note: Homo sapiens, MV4-11, 96 h, 96 h, CCK-8.
As to `O=C1CCC(NC(=O)c2cccc(CN3CCOCC3=O)c2F)C(=O)N1` (stereo not drawn) [MGD-C7, N-(2,6-dioxopiperidin-3-yl)-2-fluoro-3-((3-oxomorpholino)methyl)benzamide], the 50% inhibitory concentration (IC50) was found to be 0.68 ± 0.07 µM.
The molecule `CC1CCCN(Cc2cccc(C(=O)NC3CCC(=O)NC3=O)c2)C1` (stereo not drawn) [MGD-A4, N-(2,6-dioxopiperidin-3-yl)-3-((3-methylpiperidin-1-yl)methyl)benzamide] registered an IC50 of 3.11 ± 0.3 µM.
Regarding `O=C1CCC(NC(=O)c2cccc(CN3CCCCC3=O)n2)C(=O)N1` (stereo not drawn) [MGD-B7, N-(2,6-dioxopiperidin-3-yl)-6-((2-oxopiperidin-1-yl)methyl)picolinamide], it took 5.65 ± 0.54 µM to reach half-maximal inhibition (IC50).
`CN1CCN(Cc2cccc(C(=O)NC3CCC(=O)NC3=O)n2)CC1` (stereo not drawn) [MGD-B3, N-(2,6-dioxopiperidin-3-yl)-6-((4-methylpiperazin-1-yl)methyl)picolinamide] gave a 50% inhibitory concentration (IC50) of 0.72 ± 0.13 µM.
The same measure, in the same setting: the figure for `O=C1CCC(NC(=O)c2cccc(CN3CCCCC3=O)c2F)C(=O)N1` (stereo not drawn) [MGD-C6, N-(2,6-dioxopiperidin-3-yl)-2-fluoro-3-((2-oxopiperidin-1-yl)methyl)benzamide] is 1.63 ± 0.16 µM; for `O=C1CCC(NC(=O)c2cccc(CN3CCSCC3=O)n2)C(=O)N1` (stereo not drawn) [MGD-B10, N-(2,6-dioxopiperidin-3-yl)-6-((3-oxothiomorpholino)methyl)picolinamide] it is 5.54 ± 0.53 µM.
On to `O=C1CCC(NC(=O)c2cccc(CN3CCCC3)n2)C(=O)N1` (stereo not drawn) [MGD-B1, N-(2,6-dioxopiperidin-3-yl)-6-(pyrrolidin-1-ylmethyl)picolinamide], for which it took 15 ± 1.42 µM to reach half-maximal inhibition (IC50).
As for `O=C1CCC(NC(=O)c2cccc(CNCC3CC3)c2)C(=O)N1` (stereo not drawn) [MGD-A2, 3-(((cyclopropylmethyl)amino)methyl)-N-(2,6-dioxopiperidin-3-yl)benzamide], the half-inhibitory concentration (IC50) stood at 8.3 ± 0.79 µM. This IC50 is about 1.8-fold lower than that of the molecule before.
Still for that read-out and setting: the figure for `CC1CCCCN1Cc1cccc(C(=O)NC2CCC(=O)NC2=O)c1` (stereo not drawn) [MGD-A3, N-(2,6-dioxopiperidin-3-yl)-3-((2-methylpiperidin-1-yl)methyl)benzamide] is 6.03 ± 0.58 µM.
`O=C1CCC(NC(=O)c2cccc(CN3CCOCC3=O)n2)C(=O)N1` (stereo not drawn) [MGD-B9, N-(2,6-dioxopiperidin-3-yl)-6-((3-oxomorpholino)methyl)picolinamide] yielded an IC50 of 1.93 ± 0.18 µM.
In the case of `O=C1CCC(NC(=O)c2cccc(CN3CCOCC3)n2)C(=O)N1` (stereo not drawn) [MGD-B4, N-(2,6-dioxopiperidin-3-yl)-6-(morpholinomethyl)picolinamide], the half-inhibitory concentration (IC50) worked out at 3.02 ± 0.29 µM.
On the same count and under the same terms, the figure for `O=C1CCC(NC(=O)c2cccc(CN3CCCC3=O)c2F)C(=O)N1` (stereo not drawn) [MGD-C5, N-(2,6-dioxopiperidin-3-yl)-2-fluoro-3-((2-oxopyrrolidin-1-yl)methyl)benzamide] is 2.22 ± 0.21 µM.

The next assay concerns NCI-H929. The experiment in a line: Cell viability (CCK-8) assay. It counts as cell-based. As to conditions: 96 h. The method, then: as §1
Regarding “N-(2,6-dioxopiperidin-3-yl)-3-(thiomorpholinomethyl)cyclohexa-1,3-diene-1-carboxamide [MGD-A9]”, the concentration for half-maximal inhibition (IC50) stood at 2.11 ± 0.2 µM.
Still for that read-out and setting: the figure for “N-(2,6-dioxopiperidin-3-yl)-2-fluoro-3-((2-oxopiperidin-1-yl)methyl)benzamide [MGD-C8]” is 1.23 ± 0.12 µM; for “N-(2,6-dioxopiperidin-3-yl)-2-fluoro-3-(piperidin-1-ylmethyl)benzamide [MGD-C1]” it is 6.91 ± 0.66 µM.

Staying with this assay, now noted: Homo sapiens, NCI-H929, 96 h.
Regarding `O=C1CCC(NC(=O)c2cccc(CN3CCOCC3=O)c2F)C(=O)N1` (stereo not drawn) [MGD-C7, N-(2,6-dioxopiperidin-3-yl)-2-fluoro-3-((3-oxomorpholino)methyl)benzamide], the half-inhibitory concentration (IC50) is 0.93 ± 0.15 µM.
In the case of `CC1CCCN(Cc2cccc(C(=O)NC3CCC(=O)NC3=O)c2)C1` (stereo not drawn) [MGD-A4, N-(2,6-dioxopiperidin-3-yl)-3-((3-methylpiperidin-1-yl)methyl)benzamide], the concentration for half-maximal inhibition (IC50) was 4.56 ± 0.44 µM. Compared with the last molecule, the IC50 is about 4.9-fold higher.
The same measure, in the same setting: under `O=C1CCC(NC(=O)c2cccc(CN3CCCCC3=O)n2)C(=O)N1` (stereo not drawn) [MGD-B7, N-(2,6-dioxopiperidin-3-yl)-6-((2-oxopiperidin-1-yl)methyl)picolinamide] stands 3.21 ± 0.31 µM.
The molecule `CN1CCN(Cc2cccc(C(=O)NC3CCC(=O)NC3=O)n2)CC1` (stereo not drawn) [MGD-B3, N-(2,6-dioxopiperidin-3-yl)-6-((4-methylpiperazin-1-yl)methyl)picolinamide] had a 50% inhibitory concentration (IC50) of 0.92 ± 0.12 µM. This IC50 is about 3.5-fold lower than that of the molecule before.
The molecule `O=C1CCC(NC(=O)c2cccc(CN3CCCCC3=O)c2F)C(=O)N1` (stereo not drawn) [MGD-C6, N-(2,6-dioxopiperidin-3-yl)-2-fluoro-3-((2-oxopiperidin-1-yl)methyl)benzamide] registered a half-inhibitory concentration (IC50) of 1.33 ± 0.13 µM.
Regarding `O=C1CCC(NC(=O)c2cccc(CN3CCSCC3=O)n2)C(=O)N1` (stereo not drawn) [MGD-B10, N-(2,6-dioxopiperidin-3-yl)-6-((3-oxothiomorpholino)methyl)picolinamide], half-maximal inhibition (IC50) was put at 4.32 ± 0.41 µM.
The molecule `O=C1CCC(NC(=O)c2cccc(CN3CCCC3)n2)C(=O)N1` (stereo not drawn) [MGD-B1, N-(2,6-dioxopiperidin-3-yl)-6-(pyrrolidin-1-ylmethyl)picolinamide] showed an IC50 of 7.9 ± 0.75 µM.
Take `O=C1CCC(NC(=O)c2cccc(CNCC3CC3)c2)C(=O)N1` (stereo not drawn) [MGD-A2, 3-(((cyclopropylmethyl)amino)methyl)-N-(2,6-dioxopiperidin-3-yl)benzamide]: 12.7 ± 1.21 µM corresponded to half-maximal inhibition (IC50).
The molecule `CC1CCCCN1Cc1cccc(C(=O)NC2CCC(=O)NC2=O)c1` (stereo not drawn) [MGD-A3, N-(2,6-dioxopiperidin-3-yl)-3-((2-methylpiperidin-1-yl)methyl)benzamide] registered a 50% inhibitory concentration (IC50) of 5.39 ± 0.51 µM.
`O=C1CCC(NC(=O)c2cccc(CN3CCOCC3=O)n2)C(=O)N1` (stereo not drawn) [MGD-B9, N-(2,6-dioxopiperidin-3-yl)-6-((3-oxomorpholino)methyl)picolinamide] had an IC50 of 2.34 ± 0.22 µM.
`O=C1CCC(NC(=O)c2cccc(CN3CCOCC3)n2)C(=O)N1` (stereo not drawn) [MGD-B4, N-(2,6-dioxopiperidin-3-yl)-6-(morpholinomethyl)picolinamide] had an IC50 of 4.65 ± 0.44 µM.
Take `O=C1CCC(NC(=O)c2cccc(CN3CCCC3=O)c2F)C(=O)N1` (stereo not drawn) [MGD-C5, N-(2,6-dioxopiperidin-3-yl)-2-fluoro-3-((2-oxopyrrolidin-1-yl)methyl)benzamide]: the IC50 stood at 2.04 ± 0.19 µM. Against the preceding molecule, the IC50 is about 2.3-fold lower.

The next assay concerns Ocl-Ly3. The experiment in a line: Cell viability (CCK-8) assay. It counts as cell-based. Conditions: 96 h, CCK-8. The method, then: as §1
Regarding `O=C1CCC(NC(=O)c2cccc(CN3CCOCC3=O)c2F)C(=O)N1` (stereo not drawn) [MGD-C7, N-(2,6-dioxopiperidin-3-yl)-2-fluoro-3-((3-oxomorpholino)methyl)benzamide], the IC50 was 2.11 ± 0.2 µM.
As to “N-(2,6-dioxopiperidin-3-yl)-3-(thiomorpholinomethyl)cyclohexa-1,3-diene-1-carboxamide [MGD-A9]”, the concentration for half-maximal inhibition (IC50) came out at 5.44 ± 0.52 µM.
Same read-out and setting: the figure for `CC1CCCN(Cc2cccc(C(=O)NC3CCC(=O)NC3=O)c2)C1` (stereo not drawn) [MGD-A4, N-(2,6-dioxopiperidin-3-yl)-3-((3-methylpiperidin-1-yl)methyl)benzamide] is 6.33 ± 0.6 µM; for “N-(2,6-dioxopiperidin-3-yl)-2-fluoro-3-((2-oxopiperidin-1-yl)methyl)benzamide [MGD-C8]” it is 3.28 ± 0.31 µM; for `O=C1CCC(NC(=O)c2cccc(CN3CCCCC3=O)n2)C(=O)N1` (stereo not drawn) [MGD-B7, N-(2,6-dioxopiperidin-3-yl)-6-((2-oxopiperidin-1-yl)methyl)picolinamide] it is 15.2 ± 1.44 µM.
The molecule `CN1CCN(Cc2cccc(C(=O)NC3CCC(=O)NC3=O)n2)CC1` (stereo not drawn) [MGD-B3, N-(2,6-dioxopiperidin-3-yl)-6-((4-methylpiperazin-1-yl)methyl)picolinamide] yielded an IC50 of 2.03 ± 0.39 µM.
Regarding `O=C1CCC(NC(=O)c2cccc(CN3CCCCC3=O)c2F)C(=O)N1` (stereo not drawn) [MGD-C6, N-(2,6-dioxopiperidin-3-yl)-2-fluoro-3-((2-oxopiperidin-1-yl)methyl)benzamide], the IC50 came out at 5.95 ± 0.57 µM. This IC50 lies about 2.9-fold higher than the previous one.
Still for that read-out and setting: the figure for `O=C1CCC(NC(=O)c2cccc(CN3CCSCC3=O)n2)C(=O)N1` (stereo not drawn) [MGD-B10, N-(2,6-dioxopiperidin-3-yl)-6-((3-oxothiomorpholino)methyl)picolinamide] is 13.2 ± 1.26 µM.
In turn, `O=C1CCC(NC(=O)c2cccc(CN3CCCC3)n2)C(=O)N1` (stereo not drawn) [MGD-B1, N-(2,6-dioxopiperidin-3-yl)-6-(pyrrolidin-1-ylmethyl)picolinamide] showed a concentration for half-maximal inhibition (IC50) of 22.4 ± 2.13 µM.
Take `O=C1CCC(NC(=O)c2cccc(CNCC3CC3)c2)C(=O)N1` (stereo not drawn) [MGD-A2, 3-(((cyclopropylmethyl)amino)methyl)-N-(2,6-dioxopiperidin-3-yl)benzamide]: the IC50 amounted to 21.3 ± 2.03 µM.
Consider `CC1CCCCN1Cc1cccc(C(=O)NC2CCC(=O)NC2=O)c1` (stereo not drawn) [MGD-A3, N-(2,6-dioxopiperidin-3-yl)-3-((2-methylpiperidin-1-yl)methyl)benzamide], for which the half-inhibitory concentration (IC50) stood at 7.27 ± 0.69 µM. Against the preceding molecule, the IC50 is about 2.9-fold lower.
“N-(2,6-dioxopiperidin-3-yl)-2-fluoro-3-(piperidin-1-ylmethyl)benzamide [MGD-C1]” yielded an IC50 of 12.6 ± 1.2 µM.
Regarding `O=C1CCC(NC(=O)c2cccc(CN3CCOCC3=O)n2)C(=O)N1` (stereo not drawn) [MGD-B9, N-(2,6-dioxopiperidin-3-yl)-6-((3-oxomorpholino)methyl)picolinamide], the 50% inhibitory concentration (IC50) worked out at 9.35 ± 0.89 µM.
On the same count and under the same terms, the figure for `O=C1CCC(NC(=O)c2cccc(CN3CCOCC3)n2)C(=O)N1` (stereo not drawn) [MGD-B4, N-(2,6-dioxopiperidin-3-yl)-6-(morpholinomethyl)picolinamide] is 15 ± 1.42 µM.
Same read-out and setting: the figure for `O=C1CCC(NC(=O)c2cccc(CN3CCCC3=O)c2F)C(=O)N1` (stereo not drawn) [MGD-C5, N-(2,6-dioxopiperidin-3-yl)-2-fluoro-3-((2-oxopyrrolidin-1-yl)methyl)benzamide] is 5.05 ± 0.48 µM.
